Consider eleven compounds from US20250230154A1, “COMPOUND HAVING SHP2 PROTEIN DEGRADING ACTIVITY, AND MEDICAL USES THEREOF” (UBIX THERAPEUTICS, INC., priority 2021, published 2025).

The structures appear in SMILES notation.

The test concerns the target T1, SHP2 protein (Homo sapiens, UniProt Q06124).
T1 sequence (Q06124 1-593): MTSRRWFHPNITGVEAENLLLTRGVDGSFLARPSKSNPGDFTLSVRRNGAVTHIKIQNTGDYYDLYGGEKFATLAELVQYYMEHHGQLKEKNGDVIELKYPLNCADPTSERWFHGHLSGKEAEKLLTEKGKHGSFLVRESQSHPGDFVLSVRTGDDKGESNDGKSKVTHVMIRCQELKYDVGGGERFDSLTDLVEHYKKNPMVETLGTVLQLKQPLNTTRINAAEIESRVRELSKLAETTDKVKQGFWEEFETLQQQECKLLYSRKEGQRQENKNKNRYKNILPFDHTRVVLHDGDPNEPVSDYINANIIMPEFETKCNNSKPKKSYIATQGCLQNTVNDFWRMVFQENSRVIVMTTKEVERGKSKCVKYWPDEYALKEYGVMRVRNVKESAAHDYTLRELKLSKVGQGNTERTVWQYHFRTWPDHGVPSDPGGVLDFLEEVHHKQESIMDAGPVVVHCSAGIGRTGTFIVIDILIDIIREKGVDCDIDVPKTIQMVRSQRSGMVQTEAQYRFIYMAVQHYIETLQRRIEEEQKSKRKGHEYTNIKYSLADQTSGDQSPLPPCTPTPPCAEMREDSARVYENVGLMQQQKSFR
Nature of the test: Measurement of SHP2 protein degradation in MV-4-11 cells (western blotting). In kind it is cell-based. The settings on record: for SHP2 protein degradation activity (in words): comment on Table 4. Further details: endogenous in cells; host or cells: MV-4-11. An outline of the steps: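 SHP2 protein levels were assessed by western blotting in MV-4-11 cells after a 24 hour compound treatment. Lysates were sonicated, centrifuged, normalized by BCA assay at 562 nm, run on Bis-tris 4-12% gels, transferred to NC membrane, probed with anti-SHPTP2 (70 kDa) and anti-GAPDH (37 kDa) antibodies, and detected on LI-COR Odyssey.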

`Cc1ncsc1-c1ccc(CNC(=O)[C@@H]2C[C@@H](O)CN2C(=O)[C@@H](NC(=O)C2(F)CC2)C(C)(C)C)c(OCC2CCN(C(=O)C3(C(=O)Nc4cccc(Sc5cnc(N6CCC(C)(CN)CC6)cn5)c4Cl)CC3)CC2)c1` [Example 46, (2S,4R)—N-(2-((1-(1-((3-((5-(4-(aminomethyl)-4-methylpiperidin-1-yl)pyrazin-2-yl)thio)-2-chlorophenyl)carbamoyl)cyclopropane-1-carbonyl)piperidin-4-yl)methoxy)-4-(4-methylthiazol-5-yl)benzyl)-1-((S)-2-(1-fluorocyclopropane-1-carboxamido)-3,3-dimethylbutanoyl)-4-hydroxypyrrolidine-2-carboxamide]: the “SHP2 protein degradation activity (in words)” value was “somewhat decreased”. Where the note is “MV-4-11 cells, 24 hours”, the “SHP2 degradation (%) 10 nM” value was 0.1% and the “SHP2 degradation (%) 100 nM” value is on record as 52.3%.
As to `Cc1ncsc1-c1ccc(CNC(=O)[C@@H]2C[C@@H](O)CN2C(=O)[C@@H](NC(=O)C2(F)CC2)C(C)(C)C)c(OCCC2CCN(C(=O)C3(C(=O)Nc4cccc(Sc5cnc(N6CCC(C)(CN)CC6)cn5)c4Cl)CC3)CC2)c1` [Example 47, (2S,4R)—N-(2-(2-(1-(1-((3-((5-(4-(aminomethyl)-4-methylpiperidin-1-yl)pyrazin-2-yl)thio)-2-chlorophenyl)carbamoyl)cyclopropane-1-carbonyl)piperidin-4-yl)ethoxy)-4-(4-methylthiazol-5-yl)benzyl)-1-((S)-2-(1-fluorocyclopropane-1-carboxamido)-3,3-dimethylbutanoyl)-4-hydroxypyrrolidine-2-carboxamide], the “SHP2 protein degradation activity (in words)” value is recorded as “somewhat decreased”. Under “MV-4-11 cells, 24 hours”, the “SHP2 degradation (%) 10 nM” value is −2.5% and the “SHP2 degradation (%) 100 nM” value is recorded as 21.1%.
Regarding `Cc1ncsc1-c1ccc(CNC(=O)[C@@H]2C[C@@H](O)CN2C(=O)[C@@H](NC(=O)C2(F)CC2)C(C)(C)C)c(OCCCC2CCN(C(=O)C3(C(=O)Nc4cccc(Sc5cnc(N6CCC(C)(CN)CC6)cn5)c4Cl)CC3)CC2)c1` [Example 48, (2S,4R)—N-(2-(3-(1-(1-((3-((5-(4-(aminomethyl)-4-methylpiperidin-1-yl)pyrazin-2-yl)thio)-2-chlorophenyl)carbamoyl)cyclopropane-1-carbonyl)piperidin-4-yl)propoxy)-4-(4-methylthiazol-5-yl)benzyl)-1-((S)-2-(1-fluorocyclopropane-1-carboxamido)-3,3-dimethylbutanoyl)-4-hydroxypyrrolidine-2-carboxamide], the “SHP2 protein degradation activity (in words)” value is reported as “somewhat decreased”. Moreover, where the note is “MV-4-11 cells, 24 hours”, the “SHP2 degradation (%) 10 nM” value worked out at 18.6% and the “SHP2 degradation (%) 100 nM” value was determined as 57.3%.
Turning to `Cc1ncsc1-c1ccc(CNC(=O)[C@@H]2C[C@@H](O)CN2C(=O)[C@@H](NC(=O)C2(F)CC2)C(C)(C)C)c(OCCC2CCN(C(=O)C(C)(C)C(=O)Nc3cccc(Sc4cnc(N5CCC(C)(CN)CC5)cn4)c3Cl)CC2)c1` [Example 49, (2S,4R)—N-(2-(2-(1-(3-((3-((5-(4-(aminomethyl)-4-methylpiperidin-1-yl)pyrazin-2-yl)thio)-2-chlorophenyl)amino)-2,2-dimethyl-3-oxopropanoyl)piperidin-4-yl)ethoxy)-4-(4-methylthiazol-5-yl)benzyl)-1-((S)-2-(1-fluorocyclopropane-1-carboxamido)-3,3-dimethylbutanoyl)-4-hydroxypyrrolidine-2-carboxamide], the “SHP2 protein degradation activity (in words)” value was “somewhat decreased”. Besides, under “MV-4-11 cells, 24 hours”, the “SHP2 degradation (%) 10 nM” value is 4.0% and the “SHP2 degradation (%) 100 nM” value turned out to be 10.6%.
In the case of `Cc1ncsc1-c1ccc(CNC(=O)[C@@H]2C[C@@H](O)CN2C(=O)[C@@H](NC(=O)C2(F)CC2)C(C)(C)C)c(OC2CC3(CCN(C(=O)CC(=O)Nc4cccc(Sc5cnc(N6CCC(C)(CN)CC6)cn5)c4Cl)CC3)C2)c1` [Example 50, (2S,4R)—N-(2-((7-(3-((3-((5-(4-(aminomethyl)-4-methylpiperidin-1-yl)pyrazin-2-yl)thio)-2-chlorophenyl)amino)-3-oxopropanoyl)-7-azaspiro[3.5]nonan-2-yl)oxy)-4-(4-methylthiazol-5-yl)benzyl)-1-((S)-2-(1-fluorocyclopropane-1-carboxamido)-3,3-dimethylbutanoyl)-4-hydroxypyrrolidine-2-carboxamide], where the note is “MV-4-11 cells, 24 hours”, the “SHP2 degradation (%) 10 nM” value turned out to be 91.5% and the “SHP2 degradation (%) 100 nM” value came to 98.4%.
As for `Cc1ncsc1-c1ccc(CNC(=O)[C@@H]2C[C@@H](O)CN2C(=O)[C@@H](NC(=O)C2(F)CC2)C(C)(C)C)c(OC2CC3(CCN(C(=O)CC(=O)N(C)c4cccc(Sc5cnc(N6CCC(C)(CN)CC6)cn5)c4Cl)CC3)C2)c1` [Example 51, (2S,4R)—N-(2-((7-(3-((3-((5-(4-(aminomethyl)-4-methylpiperidin-1-yl)pyrazin-2-yl)thio)-2-chlorophenyl)(methyl)amino)-3-oxopropanoyl)-7-azaspiro[3.5]nonan-2-yl)oxy)-4-(4-methylthiazol-5-yl)benzyl)-1-((S)-2-(1-fluorocyclopropane-1-carboxamido)-3,3-dimethylbutanoyl)-4-hydroxypyrrolidine-2-carboxamide], under “MV-4-11 cells, 24 hours”, the “SHP2 degradation (%) 10 nM” value came to 4.7% and the “SHP2 degradation (%) 100 nM” value was found to be 74.1%.
For the compound `Cc1ncsc1-c1ccc(CNC(=O)[C@@H]2C[C@@H](O)CN2C(=O)[C@@H](NC(=O)C2(F)CC2)C(C)(C)C)c(OCCN2CCN(C(=O)CC(=O)Nc3cccc(Sc4cnc(N5CCC(C)(CN)CC5)cn4)c3Cl)CC2)c1` [Example 52, (2S,4R)—N-(2-(2-(4-(3-((3-((5-(4-(aminomethyl)-4-methylpiperidin-1-yl)pyrazin-2-yl)thio)-2-chlorophenyl)amino)-3-oxopropanoyl)piperazin-1-yl)ethoxy)-4-(4-methylthiazol-5-yl)benzyl)-1-((S)-2-(1-fluorocyclopropane-1-carboxamido)-3,3-dimethylbutanoyl)-4-hydroxypyrrolidine-2-carboxamide], under “MV-4-11 cells, 24 hours”, the “SHP2 degradation (%) 10 nM” value turned out to be 72% and the “SHP2 degradation (%) 100 nM” value was 96%. Moreover, where the note is “MV-4-11 cells, 1000 nM, 24 hours”, the “SHP2 degradation (%) 1000 nM” value was found to be 94.5%.
As to `Cc1ncsc1-c1ccc(CNC(=O)[C@@H]2C[C@@H](O)CN2C(=O)[C@@H](NC(=O)C2(F)CC2)C(C)(C)C)c(OCCN2CCN(C(=O)CC(=O)Nc3cccc(Sc4cnc(N5CCC(C)(N)CC5)cn4)c3Cl)CC2)c1` [Example 53, (2S,4R)—N-(2-(2-(4-(3-((3-((5-(4-amino-4-methylpiperidin-1-yl)pyrazin-2-yl)thio)-2-chlorophenyl)amino)-3-oxopropanoyl)piperazin-1-yl)ethoxy)-4-(4-methylthiazol-5-yl)benzyl)-1-((S)-2-(1-fluorocyclopropane-1-carboxamido)-3,3-dimethylbutanoyl)-4-hydroxypyrrolidine-2-carboxamide], under “MV-4-11 cells, 24 hours”, the “SHP2 degradation (%) 10 nM” value is reported as 83.9% and the “SHP2 degradation (%) 100 nM” value stood at 97.8%.
In the same order, the values of `Cc1ncsc1-c1ccc(CNC(=O)[C@@H]2C[C@@H](O)CN2C(=O)[C@@H](NC(=O)C2(F)CC2)C(C)(C)C)c(OCCN2CCN(C(=O)CC(=O)Nc3cccc(Sc4ncc(N5CCC(C)(N)CC5)nc4N)c3Cl)CC2)c1` [Example 54, (2S,4R)—N-(2-(2-(4-(3-((3-((3-amino-5-(4-amino-4-methylpiperidin-1-yl)pyrazin-2-yl)thio)-2-chlorophenyl)amino)-3-oxopropanoyl)piperazin-1-yl)ethoxy)-4-(4-methylthiazol-5-yl)benzyl)-1-((S)-2-(1-fluorocyclopropane-1-carboxamido)-3,3-dimethylbutanoyl)-4-hydroxypyrrolidine-2-carboxamide] are 85.8% and 98.3%.
In the same order, the values of `Cc1ncsc1-c1ccc(CNC(=O)[C@@H]2C[C@@H](O)CN2C(=O)[C@@H](NC(=O)C2(F)CC2)C(C)(C)C)c(OCCN2CCN(C(=O)CC(=O)Nc3cccc(Sc4ncc(N5CCC(C)(CN)CC5)nc4N)c3Cl)CC2)c1` [Example 55, (2S,4R)—N-(2-(2-(4-(3-((3-((3-amino-5-(4-(aminomethyl)-4-methylpiperidin-1-yl)pyrazin-2-yl)thio)-2-chlorophenyl)amino)-3-oxopropanoyl)piperazin-1-yl)ethoxy)-4-(4-methylthiazol-5-yl)benzyl)-1-((S)-2-(1-fluorocyclopropane-1-carboxamido)-3,3-dimethylbutanoyl)-4-hydroxypyrrolidine-2-carboxamide] are 85.9% and 97.8%.
For `Cc1ncsc1-c1ccc(CNC(=O)[C@@H]2C[C@@H](O)CN2C(=O)[C@@H](NC(=O)C2CC2)C(C)(C)C)c(OCCN2CCN(C(=O)CC(=O)Nc3cccc(Sc4cnc(N5CCC(C)(CN)CC5)cn4)c3Cl)CC2)c1` [Example 56, (2S,4R)—N-(2-(2-(4-(3-((3-((5-(4-(aminomethyl)-4-methylpiperidin-1-yl)pyrazin-2-yl)thio)-2-chlorophenyl)amino)-3-oxopropanoyl)piperazin-1-yl)ethoxy)-4-(4-methylthiazol-5-yl)benzyl)-1-((S)-2-(cyclopropanecarboxamido)-3,3-dimethylbutanoyl)-4-hydroxypyrrolidine-2-carboxamide], for the setting “MV-4-11 cells, 24 hours”, the “SHP2 degradation (%) 10 nM” value came to 91.4% and the “SHP2 degradation (%) 100 nM” value came to 98.9%.
